Measured values taken from paper PMC4275348 (Molecular microbiology, 2014).
Changes are numbered by the printed parent chain. Entries after “also recorded” stand apart in the source; their conditions may differ.

How the values were obtained:
WT LuxN = WT LuxN (Vibrio campbellii, UniProt A7MRY4); details: XK847
LuxN = LuxN (Vibrio campbellii, UniProt A7MRY4); assay type: cell-based, Vibrio harveyi; details: IC50 values measured at various concentrations of AI-1
Kin^off LuxN mutants = experiment: Bioluminescence of V. harveyi XK006 harboring Kin^off biased luxN alleles; assay type: cell-based, Vibrio harveyi; details: 10 μM 3O-C12 HSL
luxN^L166A/H210N = luxN^L166A/H210N (Vibrio campbellii, UniProt A7MRY4, H210N/L166A); details: AHLs added at 1 μM
LuxN^L166H/N176D = molecular target: T1, LuxN^L166H/N176D (Vibrio campbellii, UniProt A7MRY4, L166H/N176D); experiment: Bioluminescence of V. harveyi XK006 carrying luxN L166H/N176D; assay type: cell-based, Vibrio harveyi; details: 10 μM C8 HSL
T1 sequence (A7MRY4 1-849 L166H/N176D): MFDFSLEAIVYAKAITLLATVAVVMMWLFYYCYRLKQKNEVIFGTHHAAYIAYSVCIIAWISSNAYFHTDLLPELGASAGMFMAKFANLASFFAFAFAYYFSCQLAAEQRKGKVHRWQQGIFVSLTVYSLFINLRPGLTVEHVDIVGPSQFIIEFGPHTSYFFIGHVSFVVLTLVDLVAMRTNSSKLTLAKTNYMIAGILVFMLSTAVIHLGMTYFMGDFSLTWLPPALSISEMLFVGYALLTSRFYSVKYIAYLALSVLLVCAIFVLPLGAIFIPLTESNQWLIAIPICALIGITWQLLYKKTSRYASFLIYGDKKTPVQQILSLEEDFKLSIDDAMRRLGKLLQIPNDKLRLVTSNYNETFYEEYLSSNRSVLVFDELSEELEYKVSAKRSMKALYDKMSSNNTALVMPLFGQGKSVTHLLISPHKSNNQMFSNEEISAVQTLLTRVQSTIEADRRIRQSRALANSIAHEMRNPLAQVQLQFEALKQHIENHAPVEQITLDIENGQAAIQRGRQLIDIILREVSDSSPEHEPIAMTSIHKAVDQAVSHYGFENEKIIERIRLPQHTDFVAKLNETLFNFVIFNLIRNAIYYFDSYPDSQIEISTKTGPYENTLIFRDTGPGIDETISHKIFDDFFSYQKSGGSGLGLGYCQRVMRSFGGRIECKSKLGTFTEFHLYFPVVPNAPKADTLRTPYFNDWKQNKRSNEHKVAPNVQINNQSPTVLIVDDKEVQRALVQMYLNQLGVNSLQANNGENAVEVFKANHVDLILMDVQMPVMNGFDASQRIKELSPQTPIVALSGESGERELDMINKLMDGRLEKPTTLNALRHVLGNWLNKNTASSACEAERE

LuxN^G147D/Y194H = molecular target: T2, LuxN^G147D/Y194H (Vibrio campbellii, UniProt A7MRY4, G147D/Y194H); experiment: Bioluminescence of V. harveyi XK006 carrying luxN G147D/Y194H; assay type: cell-based, Vibrio harveyi; details: 10 μM C8 HSL
T2 sequence (A7MRY4 1-849 G147D/Y194H): T1 sequence (A7MRY4 1-849 L166H/N176D) with G147D, H166L, D176N, Y194H

[1] = test system: AinR Ser^203 replaced by Ile; experiment: Bioluminescence of V. harveyi XK006 harboring ainR S203I; assay type: cell-based, Vibrio fischeri
WT AinR = experiment: Bioluminescence of V. harveyi XK006 harboring WT V. fischeri ainR; assay type: cell-based, Vibrio fischeri
AinR^Q204H = experiment: Bioluminescence of V. harveyi XK006 harboring ainR Q204H; assay type: cell-based, Vibrio fischeri
LuxN^L166A = LuxN^L166A (Vibrio campbellii, UniProt A7MRY4, L166A)

SMILES | light production phenotype (WT LuxN) | mechanism of antagonism (LuxN) | inhibition of light production (Kin^off LuxN mutants) | light production (luxN^L166A/H210N) | higher light compared to DMSO or 20 nM AI-1 (LuxN^L166H/N176D) | induction of light production (LuxN^G147D/Y194H) | detection (light production) [1] | light production (WT AinR; AHLs added at 1 μM) | sensitivity of the reporter (WT AinR; dose response (Table S3)) | detection (light production) (AinR^Q204H) | detection (light production) (LuxN^L166A)
CCCCCCCCCC(=O)CC(=O)N[C@H]1CCOC1=O [3O-C12 HSL] | completely dark phenotype | competitive | inhibited light production to basal levels; also recorded: reduced light production to basal levels | – | – | – | – | – | – | – | –
CCCCCCCC(=O)N[C@H]1CCOC1=O [C8 HSL] | – | behaved similarly to 3O-C12 HSL | – | produced maximal light | 3 fold | 10 fold | most potent agonist | light production was induced | most sensitive | retained the capability to detect | only modest detection
